Data from patent US20080274892A1, “Novel Haloalkylsulfonanilide Derivative, Herbicide, and Method of Use Thereof” (priority 2005, published 2008).

What was measured:
false pimpernel [1] = assay: Test Example 1: herbicidal efficacy on rice paddy weeds pre-emergence; type: in vivo, Lindernia pyxidaria; conditions: 21 days
bulrush [2] = assay: Test Example 4: low dosage test for rice paddy weeds; type: in vivo, Scirpus juncoides; conditions: 300 g/ha as an active ingredient; plants treated at the one leaf stage; 21 days after treatment; vs untreated control
In short: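 Compound applied as a formulation at 300 g/ha to one-leaf bulrush grown in flooded clay loam (5 cm water) in a hot house. After 21 days, growth inhibition versus untreated plants rated on a 0–4 scale, with 4 meaning 90–100%.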

barnyard glass = assay: Test Example 2: herbicidal efficacy on rice paddy weeds post-emergence; type: in vivo, Echinochloa crus-galli; conditions: post-emergence, one leaf stage, 21 days after treatment
In short: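 Efficacy on paddy weeds was scored on a 0 to 4 growth-inhibition scale: 4 for 90%-100%, 3 for 70%-89%, 2 for 40%-69%, 1 for 1%-39% and 0 for 0%. Barnyard glass was grown in clay loam in 75 cm^2 pots under 5 cm of water in a hot house. It was compared with untreated pots 21 days after treatment.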

bulrush [3] = assay: Test Example 1: herbicidal efficacy on rice paddy weeds pre-emergence; type: in vivo, Scirpus juncoides; conditions: 21 days
[4] = test system: transplanted paddy rice plant and Bulrush; assay: Test Example 5: selectivity between transplanted paddy rice plant and weeds; type: in vivo; conditions: (highest dosage with no phytotoxicity to paddy rice)/(lowest dosage with effective level 4 on Bulrush); rice 3000-100 g/ha, Bulrush 300-10 g/ha; 21 days
In short: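 Scoring ran 21 days after treatment in a hothouse on a 0–4 scale (4 = 90–100%, 3 = 70–89%, 2 = 40–69%, 1 = 1–39%, 0 = none) relative to untreated plants. Post-emergence bulrush received 10, 30, 100 and 300 g/ha active ingredient. Transplanted rice received 100, 300, 1000 and 3000 g/ha to assess crop injury.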

bulrush [5] = assay: Test Example 2: herbicidal efficacy on rice paddy weeds post-emergence; type: in vivo, Scirpus juncoides; conditions: post-emergence, one leaf stage, 21 days after treatment
false pimpernel [6] = assay: as above; type: in vivo, Lindernia pyxidaria; conditions: post-emergence, one leaf stage, 21 days after treatment
[7] = test system: paddy rice plant (cultivar: Nihonbare); assay: Test Example 3: phytotoxicity test for transplanted paddy rice plant; type: in vivo; conditions: transplanted rice, 21 days after treatment
In short: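 Clay loam soil was placed in a 75 cm^2 plastic pot and flooded to a water depth of 5 cm. Two Nihonbare paddy rice plants at the two-leaf stage were transplanted 1 cm deep and grown in a hot house. After treatment, pots stayed in the hot house for 21 days, and phytotoxicity was then graded against an untreated control.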

[8] = dosage 1000 g/ha, treated 5 days after transplantation

Row | Structure (SMILES) | False pimpernel pre (herbicidal efficacy grade) (false pimpernel [1]; dosage 1000 g/ha) | Herbicide effect to Bulrush (bulrush [2]) | Burnyard grass post (herbicidal efficacy grade) (barnyard glass; dosage 1000 g/ha) | Bulrush pre (herbicidal efficacy grade) (bulrush [3]; dosage 1000 g/ha) | Selective Index [4] | Bulrush post (herbicidal efficacy grade) (bulrush [5]; dosage 1000 g/ha) | False pimpernel post (herbicidal efficacy grade) (false pimpernel [6]; dosage 1000 g/ha) | Phytotoxicity to paddy rice [7, 8] | False pimpernel pre (herbicidal efficacy grade) (false pimpernel [1]; dosage 300 g/ha) | Burnyard grass post (herbicidal efficacy grade) (barnyard glass; dosage 300 g/ha) | Bulrush pre (herbicidal efficacy grade) (bulrush [3]; dosage 300 g/ha) | Bulrush post (herbicidal efficacy grade) (bulrush [5]; dosage 300 g/ha) | False pimpernel post (herbicidal efficacy grade) (false pimpernel [6]; dosage 300 g/ha) | Phytotoxicity to paddy rice ([7]; dosage 300 g/ha)
1 | COC(=O)N(c1ccccc1CN1C(=O)OC(C)(C)C1=O)S(=O)(=O)C(F)(F)F [1-188] | 4 (90%-100% of herbicidal efficacy or phytotoxicity) | 4 (90%-100% of herbicidal efficacy or phytotoxicity) | 4 (90%-100% of herbicidal efficacy or phytotoxicity) | 4 (90%-100% of herbicidal efficacy or phytotoxicity) | ≧10 | 4 (90%-100% of herbicidal efficacy or phytotoxicity) | 4 (90%-100% of herbicidal efficacy or phytotoxicity) | 1 (1%-39% of herbicidal efficacy or phytotoxicity) | – | – | – | – | – | –
2 | CCC1OC(=O)N(Cc2ccccc2NS(=O)(=O)C(F)(F)F)C1=O (centres unmarked) [1-192] | – | 4 (90%-100% of herbicidal efficacy or phytotoxicity) | – | – | 10 | – | – | – | 4 (90%-100% of herbicidal efficacy or phytotoxicity) | 0 (0% of herbicidal efficacy or phytotoxicity) | 4 (90%-100% of herbicidal efficacy or phytotoxicity) | 4 (90%-100% of herbicidal efficacy or phytotoxicity) | 0 (0% of herbicidal efficacy or phytotoxicity) | 1 (1%-39% of herbicidal efficacy or phytotoxicity)
3 | CCCCOC(=O)N(c1ccccc1CN1C(=O)OC(C)(C)C1OC)S(=O)(=O)C(F)(F)F (centres unmarked) [1-196] | 4 (90%-100% of herbicidal efficacy or phytotoxicity) | 4 (90%-100% of herbicidal efficacy or phytotoxicity) | 4 (90%-100% of herbicidal efficacy or phytotoxicity) | 4 (90%-100% of herbicidal efficacy or phytotoxicity) | 10 | 4 (90%-100% of herbicidal efficacy or phytotoxicity) | 4 (90%-100% of herbicidal efficacy or phytotoxicity) | 1 (1%-39% of herbicidal efficacy or phytotoxicity) | – | – | – | – | – | –
4 | CC(C)COC(=O)N(c1ccccc1CN1CCOC1=O)S(=O)(=O)C(F)(F)F [Compound No. 1-2] | 4 (90%-100% of herbicidal efficacy or phytotoxicity) | 3 (70%-89% of herbicidal efficacy or phytotoxicity) | 4 (90%-100% of herbicidal efficacy or phytotoxicity) | 4 (90%-100% of herbicidal efficacy or phytotoxicity) | 3 | 4 (90%-100% of herbicidal efficacy or phytotoxicity) | 4 (90%-100% of herbicidal efficacy or phytotoxicity) | 1 (1%-39% of herbicidal efficacy or phytotoxicity) | – | – | – | – | – | –
5 | CC(C)COC(=O)N(c1ccccc1CN1CC(C)OC1=O)S(=O)(=O)C(F)(F)F (centres unmarked) [Compound No. 1-18] | 4 (90%-100% of herbicidal efficacy or phytotoxicity) | 4 (90%-100% of herbicidal efficacy or phytotoxicity) | 4 (90%-100% of herbicidal efficacy or phytotoxicity) | 4 (90%-100% of herbicidal efficacy or phytotoxicity) | 33 | 4 (90%-100% of herbicidal efficacy or phytotoxicity) | 4 (90%-100% of herbicidal efficacy or phytotoxicity) | 0 (0% of herbicidal efficacy or phytotoxicity) | – | – | – | – | – | –
6 | CC(C)COC(=O)N(c1ccccc1CN1CC(C)OC1=S)S(=O)(=O)C(F)(F)F (centres unmarked) [Compound No. 1-22, 5-methyl-3-{2-[N-(isobutoxycarbonyl)-N-(trifluoromethanesulfonyl)amino]benzyl}-2-oxazolidinethione] | 4 (90%-100% of herbicidal efficacy or phytotoxicity) | 4 (90%-100% of herbicidal efficacy or phytotoxicity) | 4 (90%-100% of herbicidal efficacy or phytotoxicity) | 4 (90%-100% of herbicidal efficacy or phytotoxicity) | 33 | 4 (90%-100% of herbicidal efficacy or phytotoxicity) | 4 (90%-100% of herbicidal efficacy or phytotoxicity) | 0 (0% of herbicidal efficacy or phytotoxicity) | – | – | – | – | – | –
7 | CCC1CN(Cc2ccccc2NS(=O)(=O)C(F)(F)F)C(=O)O1 (centres unmarked) [Compound No. 1-23, 5-ethyl-3-[2-(trifluoromethanesulfonylamino)benzyl]-2-oxazolidinone] | 4 (90%-100% of herbicidal efficacy or phytotoxicity) | 4 (90%-100% of herbicidal efficacy or phytotoxicity) | 4 (90%-100% of herbicidal efficacy or phytotoxicity) | 4 (90%-100% of herbicidal efficacy or phytotoxicity) | 10 | 4 (90%-100% of herbicidal efficacy or phytotoxicity) | 4 (90%-100% of herbicidal efficacy or phytotoxicity) | 1 (1%-39% of herbicidal efficacy or phytotoxicity) | – | – | – | – | – | –
8 | CC(C)COC(=O)N(c1ccccc1CN1CC(C)(C)SC1=O)S(=O)(=O)C(F)(F)F [Compound No. 1-185, 3-{2-[N-(isobutoxycarbonyl)-N-(trifluoromethanesulfonyl)amino]benzyl}-5,5-dimethylthiazolidin-2-one] | 4 (90%-100% of herbicidal efficacy or phytotoxicity) | 4 (90%-100% of herbicidal efficacy or phytotoxicity) | 4 (90%-100% of herbicidal efficacy or phytotoxicity) | 4 (90%-100% of herbicidal efficacy or phytotoxicity) | 33.3 | 4 (90%-100% of herbicidal efficacy or phytotoxicity) | 4 (90%-100% of herbicidal efficacy or phytotoxicity) | 0 (0% of herbicidal efficacy or phytotoxicity) | – | – | – | – | – | –
9 | CC1(C)OC(=O)N(Cc2ccccc2NS(=O)(=O)C(F)(F)F)C1=O [Compound No. 1-187, 5,5-dimethyl-3-[2-(trifluoromethanesulfonylamino)benzyl]oxazolidine-2,4-dione] | 4 (90%-100% of herbicidal efficacy or phytotoxicity) | 4 (90%-100% of herbicidal efficacy or phytotoxicity) | 4 (90%-100% of herbicidal efficacy or phytotoxicity) | 4 (90%-100% of herbicidal efficacy or phytotoxicity) | ≧10 | 4 (90%-100% of herbicidal efficacy or phytotoxicity) | 4 (90%-100% of herbicidal efficacy or phytotoxicity) | 3 (70%-89% of herbicidal efficacy or phytotoxicity) | – | – | – | – | – | –
10 | CC(C)COC(=O)N(c1ccccc1CN1C(=O)OC(C)(C)C1=O)S(=O)(=O)C(F)(F)F [Compound No. 1-189, 3-{2-[N-(isobutoxycarbonyl)-N-(trifluoromethanesulfonyl)amino]benzyl}-5,5-dimethyloxazolidine-2,4-dione] | 4 (90%-100% of herbicidal efficacy or phytotoxicity) | 4 (90%-100% of herbicidal efficacy or phytotoxicity) | 4 (90%-100% of herbicidal efficacy or phytotoxicity) | 4 (90%-100% of herbicidal efficacy or phytotoxicity) | ≧10 | 4 (90%-100% of herbicidal efficacy or phytotoxicity) | 4 (90%-100% of herbicidal efficacy or phytotoxicity) | 1 (1%-39% of herbicidal efficacy or phytotoxicity) | – | – | – | – | – | –
